Source: patent publication US20250122225A1, “MASP-2 INHIBITORS AND METHODS OF USE” (Omeros Corporation, priority 2023, published 2025)
pKi: −log10 of the molar value. Where a name gives a salt, the structure may show the parent alone.

Experiments:
MASP-2 (CCP1-CCP2-SP) = target: T1, MASP-2 (CCP1-CCP2-SP) (Homo sapiens, UniProt O00187); experiment: Enzymatic assay for MASP-2 inhibitory activity (fluorogenic substrate); format: biochemical
T1 construct: 15 μL of Enzyme MASP-2 (CCP1-CCP2-SP) in Assay Buffer
In short: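 Fluorescence was normalized between no-enzyme and DMSO-only controls to derive % activity, with IC50 taken as equivalent to Ki except for tight-binding inhibitors. Reactions ran 20 min at room temperature in HEPES pH 7.4/NaCl/Tween 20 buffer, using the C2-derived fluorogenic substrate, before acetic acid stop.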

human α-thrombin = target: T2, human α-thrombin (Homo sapiens, UniProt P00734); experiment: Enzymatic assay for thrombin (fluorogenic peptide substrate Boc-VPR-AMC); format: biochemical
T2 construct: enzyme (human α-thrombin (BioPharm® Lab.)) in assay buffer; purchased BioPharm® Lab
In short: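 Assay conditions kept the reaction linear in time, enzyme and substrate, so IC50 approximated Ki apart from tight- or slow-binding cases. Boc-VPR-AMC cleavage by human α-thrombin proceeded 20 min at room temperature in Hepes pH 7.4/NaCl/Tween 20 buffer, then was acid-quenched and read by fluorescence.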

T1 sequence (O00187 445-686 limits assumed): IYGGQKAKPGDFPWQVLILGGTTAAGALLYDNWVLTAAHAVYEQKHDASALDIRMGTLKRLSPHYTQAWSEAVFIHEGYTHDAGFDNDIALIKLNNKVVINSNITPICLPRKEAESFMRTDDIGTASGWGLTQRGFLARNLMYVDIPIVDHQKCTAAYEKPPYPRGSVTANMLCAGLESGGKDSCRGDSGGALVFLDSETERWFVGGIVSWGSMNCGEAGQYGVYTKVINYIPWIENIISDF
T1 sequence (O00187 287-444 partner limits assumed): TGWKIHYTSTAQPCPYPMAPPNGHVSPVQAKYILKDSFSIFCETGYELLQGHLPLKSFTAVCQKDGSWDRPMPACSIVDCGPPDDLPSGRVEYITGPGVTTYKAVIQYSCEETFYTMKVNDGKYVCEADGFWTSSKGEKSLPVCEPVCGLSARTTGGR

Compound	pKi (MASP-2 (CCP1-CCP2-SP))	pKi (human α-thrombin)
Cc1cccc([C@@H](C)Nc2ncc3n(c2=O)[C@H](C(=O)NCc2cc4cnccc4[nH]2)CC3)c1 [Compound 73, (S)-N-((1H-pyrrolo[3,2-c]pyridin-2-yl)methyl)-4-oxo-3-(((R)-1-(m-tolyl)ethyl)amino)-4,6,7,8-tetrahydropyrrolo[1,2-a]pyrazine-6-carboxamide]	> 6.30	4.60 to 5.00
CC1(C)C[C@@H](C(=O)NCc2cc3cnccc3[nH]2)n2c1c(Cl)nc(NCc1ccccc1)c2=O [Compound 229, (S)-N-((1H-pyrrolo[3,2-c]pyridin-2-yl)methyl)-3-(benzylamino)-1-chloro-8,8-dimethyl-4-oxo-4,6,7,8-tetrahydropyrrolo[1,2-a]pyrazine-6-carboxamide trifluoroacetate]	> 6.30	5.00 to 5.60
Cc1cc2[nH]c(CNC(=O)[C@@H]3CCc4cnc(NCc5cc(F)ccc5C)c(=O)n43)cc2cn1 [Compound 64, (S)-3-((5-fluoro-2-methylbenzyl)amino)-N-((6-methyl-1H-pyrrolo[3,2-c]pyridin-2-yl)methyl)-4-oxo-4,6,7,8-tetrahydropyrrolo[1,2-a]pyrazine-6-carboxamide]	> 6.30	4.60 to 5.00
Cc1nc(N)ccc1CNC(=O)[C@@H]1CCc2c(Cl)nc(NCc3cccnc3)c(=O)n21 [Compound 136, (S)-N-((6-amino-2-methylpyridin-3-yl)methyl)-1-chloro-4-oxo-3-((pyridin-3-ylmethyl)amino)-4,6,7,8-tetrahydropyrrolo[1,2-a]pyrazine-6-carboxamide]	> 6.30	5.60 to 6.30
Cc1cc(CNc2nc(Cl)c3n(c2=O)[C@H](C(=O)NCc2cc4cnccc4[nH]2)CC3)cc(C(F)(F)F)c1 [Compound 23, (S)-N-((1H-pyrrolo[3,2-c]pyridin-2-yl)methyl)-1-chloro-3-((3-methyl-5-(trifluoromethyl)benzyl)amino)-4-oxo-4,6,7,8-tetrahydropyrrolo[1,2-a]pyrazine-6-carboxamide]	> 6.30	< 4.60
Cc1ccccc1[C@@H](C)Nc1ncc2n(c1=O)[C@H](C(=O)NCc1cc3c(s1)CNC3)CC2 [Compound 93, (S)-N-((5,6-dihydro-4H-thieno[2,3-c]pyrrol-2-yl)methyl)-4-oxo-3-(((R)-1-(o-tolyl)ethyl)amino)-4,6,7,8-tetrahydropyrrolo[1,2-a]pyrazine-6-carboxamide]	> 6.30	> 6.30
CCc1cccc(CNc2ncc3n(c2=O)[C@H](C(=O)NCc2cc4cnccc4[nH]2)CC3)c1 [Compound 45, (S)-N-((1H-pyrrolo[3,2-c]pyridin-2-yl)methyl)-3-((3-ethylbenzyl)amino)-4-oxo-4,6,7,8-tetrahydropyrrolo[1,2-a]pyrazine-6-carboxamide]	> 6.30	> 6.30
Cc1ccccc1CNc1ncc2n(c1=O)[C@H](C(=O)NCc1cc3c(s1)CNC3)CC2 [Compound 286, trifluoroacetate]	> 6.30	5.60 to 6.30
COc1cccc(CNc2ncc3n(c2=O)[C@H](C(=O)NCc2cc4cnccc4[nH]2)CC3)c1 [Compound 39, (S)-N-((1H-pyrrolo[3,2-c]pyridin-2-yl)methyl)-3-((3-methoxybenzyl)amino)-4-oxo-4,6,7,8-tetrahydropyrrolo[1,2-a]pyrazine-6-carboxamide trifluoroacetate]	> 6.30	5.00 to 5.60
COc1cc(C)cc(CNc2nc(Cl)c3n(c2=O)[C@H](C(=O)NCc2ccc(N)nc2C)CC3)c1 [Compound 8, (S)-N-((6-amino-2-methylpyridin-3-yl)methyl)-1-chloro-3-((3-methoxy-5-methylbenzyl)amino)-4-oxo-4,6,7,8-tetrahydropyrrolo[1,2-a]pyrazine-6-carboxamide]	> 6.30	5.60 to 6.30
O=C(NCc1cc2c(s1)CNC2)[C@@H]1CCc2cnc(NCc3cccc(-c4ccccc4)c3)c(=O)n21 [Compound 285, (S)-3-(([1,1′-biphenyl]-3-ylmethyl)amino)-N-((5,6-dihydro-4H-thieno[2,3-c]pyrrol-2-yl)methyl)-4-oxo-4,6,7,8-tetrahydropyrrolo[1,2-a]pyrazine-6-carboxamide trifluoroacetate]	> 6.30	5.60 to 6.30
O=C(NCc1cc2cnccc2[nH]1)[C@@H]1CCc2c(Cl)nc(NCc3cccc(C(F)F)c3)c(=O)n21 [Compound 17, (S)-N-((1H-pyrrolo[3,2-c]pyridin-2-yl)methyl)-1-chloro-3-((3-(difluoromethyl)benzyl)amino)-4-oxo-4,6,7,8-tetrahydropyrrolo[1,2-a]pyrazine-6-carboxamide]	> 6.30	4.60 to 5.00
Cc1cc(F)cc(CNc2ncc3n(c2=O)[C@H](C(=O)NCc2ccc(CN)cc2C)CC3)c1 [Compound 205, (S)—N-(4-(aminomethyl)-2-methylbenzyl)-3-((3-fluoro-5-methylbenzyl)amino)-4-oxo-4,6,7,8-tetrahydropyrrolo[1,2-a]pyrazine-6-carboxamide trifluoroacetate]	> 6.30	5.00 to 5.60
O=C(NCc1cc2cnccc2[nH]1)[C@@H]1CCc2c(-c3cn[nH]c3)nc(NCCc3ccccc3)c(=O)n21 [Compound 246]	> 6.30	< 4.60
CC[C@H]1C[C@@H](C(=O)NCc2cc3cnc(C)cc3[nH]2)n2c1cnc(NCc1cc(C)cc(C)c1)c2=O [Compound 129, (6S,8S)-3-((3,5-dimethylbenzyl)amino)-8-ethyl-N-((6-methyl-1H-pyrrolo[3,2-c]pyridin-2-yl)methyl)-4-oxo-4,6,7,8-tetrahydropyrrolo[1,2-a]pyrazine-6-carboxamide]	> 6.30	4.60 to 5.00
Cc1cccc(C2(Nc3nc(Cl)c4n(c3=O)[C@H](C(=O)NCc3cc5cnccc5[nH]3)CC4)CC2)c1 [Compound 110, (S)—N-((1H-pyrrolo[3,2-c]pyridin-2-yl)methyl)-1-chloro-4-oxo-3-((1-(m-tolyl)cyclopropyl)amino)-4,6,7,8-tetrahydropyrrolo[1,2-a]pyrazine-6-carboxamide trifluoroacetate]	> 6.30	5.00 to 5.60
Cc1cc(F)cc(CNc2ncc3n(c2=O)[C@H](C(=O)NCc2cnc4[nH]cc(Cl)c4c2)CC3)c1 [Compound 182, (S)—N-((3-chloro-1H-pyrrolo[2,3-b]pyridin-5-yl)methyl)-3-((3-fluoro-5-methylbenzyl)amino)-4-oxo-4,6,7,8-tetrahydropyrrolo[1,2-a]pyrazine-6-carboxamide]	> 6.30	> 6.30
Cc1cc(C)cc(CNc2ncc3n(c2=O)[C@H](C(=O)NCc2ccccn2)CC3)c1 [Compound 40, (S)-3-((3,5-dimethylbenzyl)amino)-4-oxo-N-(pyridin-2-ylmethyl)-4,6,7,8-tetrahydropyrrolo[1,2-a]pyrazine-6-carboxamide trifluoroacetate]	4.60 to 5.00	< 4.60
Cc1cc(C)cc(CNc2ncc3n(c2=O)[C@H](C(=O)NCc2cnc4c(c2)CNC4)CC3)c1 [Compound 108, (S)—N-((6,7-dihydro-5H-pyrrolo[3,4-b]pyridin-3-yl)methyl)-3-((3,5-dimethylbenzyl)amino)-4-oxo-4,6,7,8-tetrahydropyrrolo[1,2-a]pyrazine-6-carboxamide]	> 6.30	4.60 to 5.00
Cc1ccc(C)c(CNc2ncc3n(c2=O)[C@H](C(=O)N[C@H](C)c2ccc(N)nc2)CC3)c1 [Compound 193, (S)-N-((R)-1-(6-aminopyridin-3-yl)ethyl)-3-((2,5-dimethylbenzyl)amino)-4-oxo-4,6,7,8-tetrahydropyrrolo[1,2-a]pyrazine-6-carboxamide trifluoroacetate]	> 6.30	5.00 to 5.60
Cc1ccc(F)c(CNc2ncc3n(c2=O)[C@H](C(=O)N[C@H](C)c2ccc(N)nc2)CC3)c1 [Compound 199, (S)-N-((R)-1-(6-aminopyridin-3-yl)ethyl)-3-((2-fluoro-5-methylbenzyl)amino)-4-oxo-4,6,7,8-tetrahydropyrrolo[1,2-a]pyrazine-6-carboxamide trifluoroacetate]	> 6.30	5.00 to 5.60
O=C(NCc1cc2cnccc2[nH]1)[C@@H]1CCc2cnc(NCC3CCc4ccccc4C3)c(=O)n21 (stereo partly shown) [Compound 148]	> 6.30	5.60 to 6.30
Cc1ccc(C)c(CNc2ncc3n(c2=O)[C@H](C(=O)NCc2cc4cnc(C)cc4[nH]2)CC3)c1 [Compound 57, (S)-3-((2,5-dimethylbenzyl)amino)-N-((6-methyl-1H-pyrrolo[3,2-c]pyridin-2-yl)methyl)-4-oxo-4,6,7,8-tetrahydropyrrolo[1,2-a]pyrazine-6-carboxamide]	> 6.30	4.60 to 5.00
O=C(NCc1cc2c(s1)CNC2)[C@@H]1CCc2cnc(NCC3(Cc4ccccc4)CCCCC3)c(=O)n21 [Compound 252]	> 6.30	5.00 to 5.60
Cc1ccc(F)c(CNc2nc(Cl)c3n(c2=O)[C@H](C(=O)NCc2cc4cnccc4[nH]2)CC3)c1 [Compound 21, (S)-N-((1H-pyrrolo[3,2-c]pyridin-2-yl)methyl)-1-chloro-3-((2-fluoro-5-methylbenzyl)amino)-4-oxo-4,6,7,8-tetrahydropyrrolo[1,2-a]pyrazine-6-carboxamide]	> 6.30	5.00 to 5.60
Cc1cc(C)cc(CNc2ncc3n(c2=O)[C@H](C(=O)NC(C)c2cc(Cl)ccc2-n2cnnn2)CC3)c1 (mixture of isomers) [Compound 283, (S)—N—((R/S)-1-(5-chloro-2-(1H-tetrazol-1-yl)phenyl)ethyl)-3-((3,5-dimethylbenzyl)amino)-4-oxo-4,6,7,8-tetrahydropyrrolo[1,2-a]pyrazine-6-carboxamide]	> 6.30	> 6.30
